According to US20250032476A1, “ALPHA-2A ADRENERGIC RECEPTOR MODULATORS AND USES THEREOF” (The Regents of the University of California, priority 2021, published 2025):
Like-named read-outs stand apart in the source and are kept apart here.

Legend:
[1] = target: α2AAR-S215^5.42A (Homo sapiens (Human), UniProt P08913, S215A); assay: Gi activation (BRET) at α2AAR S215^5.42A mutant; type: cell-based; conditions: versus wild type
Experimental: Investigating the sensitivity of selected ligands to the receptor mutants α2AAR-D128^3.32A, α2AAR-D128^3.32T, α2AAR-D128^3.32L, α2AAR-S215^5.42A, α2AAR-Y409^6.55A, α2AAR-Y409^6.55T, α2AAR-Y409^6.55F, α2AAR-F427^7.39F, α2AAR-Y431^7.43A, and α2AAR-Y431^7.43F was determined by monitored G protein stimulation as described above transfecting the appropriate receptor together with Gαi1-RLucII and Gβ1/Gγ1-GFP10. […] Three to ten experiments were done in duplicate.
The sensitivity of selected ligands to the receptor mutants α2AAR-D128^3.32A, α2AAR-D128^3.32T, α2AAR-D128^3.32L, α2AAR-S215^5.42A, α2AAR-Y409^6.55A, α2AAR-Y409^6.55T, α2AAR-Y409^6.55F, α2AAR-F427^7.39F, α2AAR-Y431^7.43A, and α2AAR-Y431^7.43F was monitored by G protein activation as described above transfecting the appropriate receptor together with Gαi1-RLucII and Gβ1/Gγ2-GFP10. […] Similarly, the effect of the α2AAR-D128^3.32A, α2AAR-S215^5.42A, α2AAR-Y409^6.55A, α2AAR-Y409^6.55F, α2AAR-F427^7.39F, α2AAR-Y431^7.43A, and α2AAR-Y431^7.43F mutations on arrestin recruitment was evaluated as described above transfecting the appropriate receptor together with CAAX-rGFP, GRK2 and β-arrestin-2-RLucII. Data was analyzed as ligand induced changes in BRET compared to vehicle (deltaBRET). Three to seven experiments were done in duplicate.

[2] = Pharmacokinetics in mice (plasma, brain, CSF); type: in vivo
[3] = target: human α2AAR (Homo sapiens (Human), UniProt P08913); assay: Radioligand competition binding to human α2AAR (HEK293T membranes, [3H]RX82,1002); conditions: human α2AAR
Sequence of human α2AAR (P08913 whole entry): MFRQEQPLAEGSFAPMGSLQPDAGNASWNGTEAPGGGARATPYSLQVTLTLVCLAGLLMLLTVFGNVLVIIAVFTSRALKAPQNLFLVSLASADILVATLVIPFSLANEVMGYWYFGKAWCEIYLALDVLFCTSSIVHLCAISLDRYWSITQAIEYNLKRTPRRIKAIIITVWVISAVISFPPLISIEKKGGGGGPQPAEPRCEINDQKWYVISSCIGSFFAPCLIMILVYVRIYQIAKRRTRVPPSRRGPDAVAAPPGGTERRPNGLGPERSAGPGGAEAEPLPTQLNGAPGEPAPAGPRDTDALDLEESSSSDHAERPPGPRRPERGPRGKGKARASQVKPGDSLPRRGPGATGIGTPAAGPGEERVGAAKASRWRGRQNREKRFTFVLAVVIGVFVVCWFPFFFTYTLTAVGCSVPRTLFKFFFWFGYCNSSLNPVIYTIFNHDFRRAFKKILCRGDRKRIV

[4] = Metabolic stability in male rat liver microsomes; type: in vitro ADME; conditions: 1 hour
[5] = mouse, plasma, ip, I.P. 10 mg/kg

Sequence of α2AAR-S215^5.42A (P08913 whole entry S215A): as the sequence (P08913 whole entry) above, with S215A counted along it

Fold improvement of Gi potency at S215^5.42A [1]: 11 fold | Fold greater CSF Cmax than PS75 ([2]; 10 mg/kg i.p.): 4 fold | half-life ([2]; C57BL/6N ('9087, '7075, '4622), CD-1 (PS75), mouse, CSF, ip, I.P. 10 mg/kg, read-out: T ½ CSF (converted)): 13.2 min | AUC Brain ([2]; I.P. 10 mg/kg): 814000 ng·min/mL | AUC CSF ([2]; I.P. 10 mg/kg): 12000 ng·min/mL | Cmax Brain ([2]; I.P. 10 mg/kg): 8570 ng/mL | Cmax CSF ([2]; I.P. 10 mg/kg): 412 ng/mL | half-life ([2]; mouse, brain, ip, I.P. 10 mg/kg, read-out: T ½ Brain (converted)): 43.8 min | AUC [2, 5]: 952 ng·h/mL | Cmax [2, 5]: 694 ng/mL | half-life ([2]; mouse, plasma, ip, I.P. 10 mg/kg, read-out: T ½ Plasma (converted)): 38.4 min | Ki ([3]; mean ± SEM (Table 3), read-out: Ki): 0.037 ± 0.0051 µM | Ki ([3]; mean ± s.e.m., read-out: Ki for α2AAR): 0.037 ± 0.0051 µM | Metabolic stability, compound remaining [4]: remain largely unmodified after 1 hour
SMILES: Fc1cccc2c(Nc3ccncc3)cccc12 [Compound 7075, N-(5-fluoronaphthalen-1-yl)pyridin-4-amine]
